# Reference: ChEMBL document CHEMBL1124848, “Monomethyl ether derivatives of 7,8-dihydroxy- and 8,9-dihydroxy-4-n-propyl-1,2,3,4,4a,5,6,10b-octahydrobenzo[f]quinolines as possible products of metabolism by catechol-O-methyltransferase” (1990)
# Legend:
# [1] = Evaluated for its effect in the cat cardioaccelerator nerve assay at the dose of 0.0013 umol/kg; assay type: functional; details: Felis catus
# [2] = Evaluated for its effect in the cat cardioaccelerator nerve assay at the dose of 300 ug/kg; assay type: functional; details: Felis catus
Compound,inhibition in vivo at 0.0013 µmol/kg [1],inhibition in vivo at 0.3 mg/kg [2]
CCCN1CCC[C@H]2c3cc(O)c(O)cc3CC[C@@H]21,50%,–
CCCN1CCC[C@H]2c3cc(OC)c(O)cc3CC[C@@H]21,–,50%
